The test relates to P. falciparum 3D7 growth, pLDH absorbance. Nature of the test: P. falciparum 3D7 growth inhibition, dose response, strain 3D7 (AID 2305).

One may read the IC50 as the concentration needed to halve the response being measured. A low value points to greater potency in that assay. In turn, `CN(C1CCC(NC(=O)/C=C/c2ccccc2)CC1)C1CC2(CCN(C(=O)OC(C)(C)C)CC2)c2ccccc21` (stereo not given) had an IC50 of 820 nM. With `COc1ccc2ncc(F)c(CCN3C[C@H](CNCc4ccc5ccccc5c4)[C@H](O)C3)c2n1` the figure was 500 nM; with `Cc1cc(-c2cccc(CNC3CCN(C)CC3)c2)ccc1S(=O)(=O)NCc1ccccc1`, 820 nM. With `Cc1cccnc1Nc1nc(-c2ccccn2)cs1` the figure was 690 nM; with `Cn1cnc(CCNC(=O)c2ccc(-c3cccc(-c4nc5ccc(F)cc5[nH]4)c3)cc2)c1`, 680 nM; with `O=C(/C=C/c1ccc(Cl)c(Cl)c1)NCCCCCN1CCC(NC(=O)Nc2ccc(C(F)(F)F)cc2)CC1`, 750 nM. Regarding `CC(Cc1ccc(C(=O)N2CCN(C(=O)c3ccc(CC(C)NCCc4cccc(Cl)c4)cc3)CC2)cc1)NCCc1cccc(Cl)c1` (stereo not given), the concentration for half-maximal inhibition (IC50) was found to be 680 nM. `CCCC[C@@H](C(=O)NCCc1ccc(Cl)cc1)N1C(=O)CCC1C(=O)Nc1ccc(Cl)c(Cl)c1` (stereo not given in full) showed an IC50 of 870 nM. Regarding `CC(C)C(C(=O)n1ncc2c3c(N)nc(N)nc3ccc21)C(C)C`, the IC50 came to 650 nM. With `CO/C(=C\C=C\c1cc2cc(Cl)c(Cl)cc2[nH]1)C(=O)NCCCCN1CCN(c2ccccc2OC)CC1` the figure was 510 nM; with `Cc1cc(C(F)(F)F)n2nc(C3CCN(Cc4cc(C)c(O)c(C)c4)C3)cc2n1` (stereo not given), 760 nM; with `CCc1cc(Br)c2c(c1)C(NCCCNc1cc(=O)c3ccccc3[nH]1)CCN2` (stereo not given), 850 nM. For the compound `OCCOCn1cnc2cnc(N[C@H]3OC[C@H](O)[C@@H](O)[C@@H]3O)nc21`, the IC50 was found to be 1640 nM. Turning to `COc1cccc(-c2c(C#N)c(N)nc3c2c(C)nn3-c2ccccc2)c1O`, the half-inhibitory concentration (IC50) came out at 280 nM. With `COc1cc2c(c(Cl)c1OC)CCN(Cc1ccccc1)CC2c1ccc(C(N)=O)cc1` (stereo not given) the figure was 850 nM; with `O=C(CSc1nc2ccccc2c(=O)n1C1CC1)Nc1cc(C(F)(F)F)ccc1Cl`, 110 nM.

As for `CCN(CC)CCNc1ccnc2[nH]c3ccc([N+](=O)[O-])cc3c12`, the 50% inhibitory concentration (IC50) was determined as 200 nM.

The compound `CCCCNC(=O)c1[nH]c2c(NC(=O)COc3ccccc3)cccc2c1-c1cccc(NC(=O)C(N)CO)c1` (stereo not given) registered a half-maximal inhibitory concentration (IC50) of 850 nM.

For the compound `COc1cc(F)c2ncc(Cl)c(CCN3CCC(NCc4ccc5c(c4)NC(=O)CO5)CC3)c2c1`, the IC50 is 230 nM. With `COc1cc(NC(=O)/C=C/c2cc3ccccc3n2C)ccc1OCCN(C(C)C)C(C)C`, the IC50 came to 390 nM.

`O=c1cc(NCCCNC2CCCc3c2ccc2ccccc32)[nH]c2ccccc12` (stereo not given) gave an IC50 of 820 nM. Compound `CCN(CC)S(=O)(=O)c1ccc(C=CC(=O)Nc2cc(Cl)ccc2N2CCOCC2)cc1` yielded a concentration for half-maximal inhibition (IC50) of 920 nM.

Regarding `COc1ccc(N2CCN(CCCN3CCN(C(=O)c4ccc(/C=C/c5ccc(Cl)c(Cl)c5)cc4)CC3)CC2)c(OC)c1`, the IC50 came out at 910 nM. As to `O=C(Nc1cccc(-c2cc3ccccc3[nH]2)c1)C1CCN(Cc2ccccc2O)CC1`, the IC50 came to 940 nM.

In turn, `Oc1ccc(CCNCc2ccc(OCc3ccccc3)c(OCc3ccccc3)c2)cc1` displayed a concentration for half-maximal inhibition (IC50) of 1510 nM. Compound `FC(F)(F)c1cnc(Sc2nnc(-c3ccco3)o2)c(Cl)c1` returned a concentration for half-maximal inhibition (IC50) of 790 nM. Take `CC(C)NCc1cccc(-c2ccc(NC(=O)c3ccc(C#N)cc3)cc2)c1`: the IC50 stood at 830 nM.

`CN(Cc1ccc(-c2ccc(C(F)(F)F)cc2)cc1)C(=O)Cn1c(CCc2cccc(F)c2F)cc(=O)c2ccc(OCC3CCCN3C)cc21` (stereo not given) gave an IC50 of 1070 nM. Next, `COc1cc2nc(NCCc3ccccc3)nc(NCc3cnn(C)c3C)c2cc1OC`: 710 nM; `N#Cc1cccc(-c2cnc(N)c(-c3nc4ccc(S(N)(=O)=O)cc4[nH]3)c2)c1`: 640 nM; `COc1ccc2c(NN=Cc3ccccc3[N+](=O)[O-])ccnc2c1`: 740 nM. `Cc1cc(NCc2ccccc2)nc(NCc2ccccc2)n1` came in with an IC50 of 970 nM. Take `Oc1ccc(-c2ccccc2)cc1CN1CCCCCC1`: the IC50 turned out to be 1170 nM. Compound `Cc1nc2ccc(NC(=O)Nc3ccnc4ccc(C(F)(F)F)cc34)cc2o1` returned an IC50 of 910 nM. With `Cc1ccc(Oc2ccc(NC(=O)CNc3ccccc3N3CCCC3=O)cc2)cc1`, the IC50 came to 370 nM.

In turn, `Cc1c(-c2cccc(Br)c2)[nH]c2nc(N)nc(N)c12` yielded an IC50 of 740 nM. For `O=C(Cc1cnc[nH]1)Nc1ccc(-c2ccc(-c3nc4ccc(F)cc4[nH]3)cc2)cc1`, the half-inhibitory concentration (IC50) came out at 730 nM. The compound `O=C(Cc1cc(=O)oc2cc(O)ccc12)N1CCC(CN2CCC(c3c[nH]c4ccccc34)CC2)CC1` yielded an IC50 of 870 nM.

Compound `COc1cc2ncnc(NCCc3ccccc3Cl)c2cc1OC` returned a half-maximal inhibitory concentration (IC50) of 1120 nM. With `Cc1cc(NCCc2ccccc2)nc(NC(=NCC(=O)OC(C)(C)C)Nc2ccc(C(F)(F)F)cc2)n1` the figure was 330 nM; with `Cc1ccc(N/C(N)=N/c2ncccc2OCc2c(F)cccc2Cl)cc1`, 1190 nM; with `Cc1noc(-c2cccs2)c1C(=O)NCCc1cccc(Cl)c1`, 460 nM.

With `NOCCCOc1ccc(Cl)cc1`, the concentration for half-maximal inhibition (IC50) was 570 nM.

The compound `CCCCC(=O)Nc1nc2ccc([N+](=O)[O-])cc2s1` showed an IC50 of 760 nM. Turning to `Cc1cccc2[nH]c(-c3ccc(-c4ccc(NC(=O)Nc5ccc(Cl)c(Cl)c5)cc4)s3)nc12`, the IC50 turned out to be 180 nM. Compound `NC(N)=NN=CC(=O)Nc1ccc(C(F)(F)F)cc1` had a 50% inhibitory concentration (IC50) of 930 nM. `O=C(Nc1ccc(CN2CCOCC2)cc1)c1ccc(-c2cc(Cl)ccc2Cl)o1` had an IC50 of 610 nM.

`COC(=O)c1cccc(CNCc2cccc(-c3ccc(-c4nc5ccc(C(F)(F)F)cc5[nH]4)cc3)c2)c1` returned an IC50 of 260 nM.

In turn, `CCOc1ccc2nc(C)cc(NN=Cc3cccnc3)c2c1` gave an IC50 of 150 nM. `COC(=O)c1ccc(CC(C)NCC(O)c2cccc(Br)c2)cc1` (stereo not given) displayed an IC50 of 690 nM.

Regarding `CN1CC[C@@H](Oc2cc(NC(=O)Nc3ccccc3Br)ccc2Cl)C1`, the IC50 stood at 1100 nM. In turn, `CO[C@@H]1C[C@@H](C(=O)Nc2ccccc2)N(c2ccc(C#N)c3ccccc23)C1` returned an IC50 of 910 nM.

`Cc1nc2ccccc2c(=O)n1NCc1ccc(Cl)c(Cl)c1` displayed an IC50 of 150 nM. `CC(=O)Oc1c(Br)c(C)nc(C)c1-c1ccc(Oc2ccc(OC(F)(F)F)cc2)cc1`: the IC50 came to 130 nM. `COc1ccc2c(c1)CC(C)(C)NC2CCCCCCCCC1NC(C)(C)Cc2cc(OC)ccc21` (stereo not given) gave an IC50 of 1300 nM. For `Cc1ccc(/C=C/C(=O)NC2CCC(N3CCC(c4ccccc4C)CC3)CC2)cc1F` (stereo not given), the IC50 is 1040 nM. Next, `Cc1ccc(O)c(-c2cc(C(=O)Nc3ccc(S(=O)(=O)N4CCCCCC4)cc3)[nH]n2)c1`: 710 nM; `O=C1COc2ccc(S(=O)(=O)N3CCC[C@@H]3CCN3CCC(c4c[nH]c5cnccc45)CC3)cc2N1`: 860 nM.

`Cc1cc(NN=Cc2ccc(Cl)cc2)c2cc(F)ccc2n1` had an IC50 of 830 nM. On to `CC(=O)Nc1ccc(C(=O)Nc2cccc(-c3cccc(-c4nc5ccc(F)cc5[nH]4)c3)c2)cn1`, for which the 50% inhibitory concentration (IC50) was determined as 130 nM. On to `COc1ccc(NC(=O)C2c3ccccc3C(=O)N(C3CCCC3)C2c2cccs2)cc1OC` (stereo not given), for which the IC50 was found to be 1090 nM.

Consider `CCOC(=O)COc1cccc(CNc2ccc3nc(N)nc(N)c3c2)c1`, for which the IC50 came out at 410 nM. Consider `CCn1c(-c2nonc2N)nc2c(C#CC(C)(C)O)ncc(OCCNCCc3ccc(OC)cc3)c21`, for which the concentration for half-maximal inhibition (IC50) was determined as 960 nM. Next, `Oc1cccc(Nc2nc(NCc3ccccc3)c3ccccc3n2)c1`: 40 nM. Regarding `COc1ccc2ncc(F)c(CCN3CC[C@@H](CNCc4nc5c(cc4C)SCC(=O)N5)C3)c2n1`, the half-inhibitory concentration (IC50) amounted to 1150 nM.

`Cc1nc(-c2ccc(-c3ccc(C(=O)Nc4ccc(C(C)C)c(OCCN(C)C)c4)cc3)c(C)c2)no1` yielded a 50% inhibitory concentration (IC50) of 870 nM. Take `Cc1cc(-c2cc(-c3ccc(OCCN(C)C)cc3)[nH]c2-c2ccc3c(c2)CCC3=NO)ccn1`: the 50% inhibitory concentration (IC50) came to 870 nM. Compound `Cc1cccc2[nH]c(-c3ccc(-c4ccc(NC(=O)Nc5ccc(Cl)c(Cl)c5)cc4)cc3)nc12` registered an IC50 of 830 nM. As to `Cc1nc(-c2ccccc2)nc(N2CCN(C(=O)c3ccco3)CC2)c1Cc1ccccc1F`, the IC50 is 930 nM.

In the case of `O=C(/C=C/c1ccc(Cl)c(Cl)c1)NC1CCC(CN2CCC(c3c[nH]c4ccncc34)CC2)CC1` (stereo not given), the half-maximal inhibitory concentration (IC50) stood at 400 nM. With `CCCc1ccc(NC(=O)c2ccc(CN3CCCN(Cc4cccc(O)c4)CC3)cc2)cc1` the figure was 400 nM; with `COc1nc(-n2ccc(=N)cc2)nc2ccccc12`, 1060 nM. With `Oc1cc2c(cc1CN1CCN(Cc3cccs3)CC1)CCC2`, the 50% inhibitory concentration (IC50) was found to be 840 nM.

For `O=C(NCCCCCN1CCC(c2c[nH]c3ccccc23)CC1)Nc1cccc(I)c1`, the IC50 was 990 nM.

In turn, `Fc1ccccc1C=NNc1ccnc2ccc(C(F)(F)F)cc12` showed a 50% inhibitory concentration (IC50) of 870 nM. Next, `CC[C@H]1CN2CC[C@@H]1C[C@H]2[C@H](O)c1cc(-c2c(C)noc2C)nc2ccc(OC)cc12`: 30 nM; `Clc1ccc(C=NNc2ccnc3ccccc23)cc1`: 720 nM. Take `Nc1nc(N)c2c(ccc3nn(C4CCCC4)cc32)n1`: the IC50 turned out to be 290 nM.

As to `COc1ccc(C(=O)O)cc1OCc1ccccc1`, the IC50 came out at 820 nM. Consider `CNC(=O)C1Cc2c([nH]c3ccc(Br)cc23)C2(CCN(CCc3ccccc3)CC2)N1` (stereo not given), for which the IC50 is 920 nM. With `Cc1ncc([N+](=O)[O-])n1CCOC(=O)NC(NCC1COc2ccccc2O1)C(Cl)(Cl)Cl` (stereo not given) the figure was 220 nM; with `Cc1cc(-c2nc3cncc(-c4cccc(CN5CCCC5Cc5cccnc5)c4)c3n2C)nn1C` (stereo not given), 130 nM; with `O=C(Nc1ccccc1)c1cnc[nH]1`, 990 nM.

`CC(C)(C)C1CCC(CC2=C(C(=O)O)c3ccccc3C2=O)CC1` (stereo not given) yielded an IC50 of 1100 nM.

On to `FC(F)(F)c1ccc2nc(-c3cccc(-c4ccc(CNCCc5ccncc5)cc4)c3)[nH]c2c1`, for which the half-inhibitory concentration (IC50) stood at 100 nM. The compound `CC(=O)Nc1ccc(CN2CCc3ccc(NS(=O)(=O)c4cccc(OCc5ccc(Cl)cc5)c4)cc3CC2)s1` returned a half-maximal inhibitory concentration (IC50) of 910 nM. As for `C/C=C1/CN2CC[C@H]1C[C@H]2[C@H](O)c1ccnc2ccc(OC)cc12`, the IC50 is 200 nM. Next, `OC(CNc1ccnc(Nc2cccc(CCN3CCOCC3)c2)n1)c1ccccc1` (stereo not given): 590 nM; `CCCC(=O)Nc1ccc(OCCCN(Cc2ccccc2OC(F)(F)F)c2ccc(C#N)c(C(F)(F)F)c2)cc1`: 600 nM; `Cc1ccc2oc3cc(-c4nn[nH]n4)ccc3c(=O)c2c1`: 90 nM.

Values taken from PubChem BioAssay AID2305 (GlaxoSmithKline (GSK), 2010).
